From PubChem BioAssay AID2060900 (Molecular Pharmacology Branch, DTP, NCI, 2025)

Test system: 521955-158-R2-J5-PDC complex spheroids, viability
Test: Anticancer human tumor 521955-158-R2-J5-PDC patient-derived pancreatic carcinoma cell line growth inhibition [RAS]
Conditions: for IC50: curve of first compound; for viability, T/C: stronger effect = lower value; active = viability on the fitted dose curve at most 10% of control; inactive = the rest
Method in brief: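 Multi-cell-type spheroids: tumor cells plus HUVEC endothelial cells and mesenchymal stem cells. RAS-pathway inhibitors were combined with targeted agents, each dosed in half-log steps down from clinical Cmax, or from 10 microM when Cmax was unknown.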

[1] = second compound 0.000949 µM, first compound 0.0316 µM
[2] = second compound 0.000949 µM, first compound 0.1 µM
[3] = second compound 0.000949 µM, first compound 0.316 µM
[4] = second compound 0.000949 µM, first compound 1 µM
[5] = second compound 0.000949 µM, first compound 3.16 µM
[6] = second compound 0.000949 µM, first compound 10 µM
[7] = second compound 0.003 µM, first compound 0.0316 µM
[8] = second compound 0.003 µM, first compound 0.1 µM
[9] = second compound 0.003 µM, first compound 0.316 µM
[10] = second compound 0.003 µM, first compound 1 µM
[11] = second compound 0.003 µM, first compound 3.16 µM
[12] = second compound 0.003 µM, first compound 10 µM
[13] = second compound 0.00949 µM, first compound 0.0316 µM
[14] = second compound 0.00949 µM, first compound 0.1 µM
[15] = second compound 0.00949 µM, first compound 0.316 µM
[16] = second compound 0.00949 µM, first compound 1 µM
[17] = second compound 0.00949 µM, first compound 3.16 µM
[18] = second compound 0.00949 µM, first compound 10 µM
[19] = second compound 0.03 µM, first compound 0.0316 µM
[20] = second compound 0.03 µM, first compound 0.1 µM
[21] = second compound 0.03 µM, first compound 0.316 µM
[22] = second compound 0.03 µM, first compound 1 µM
[23] = second compound 0.03 µM, first compound 3.16 µM
[24] = second compound 0.03 µM, first compound 10 µM
[25] = second compound 0.0949 µM, first compound 0.0316 µM
[26] = second compound 0.0949 µM, first compound 0.1 µM
[27] = second compound 0.0949 µM, first compound 0.316 µM
[28] = second compound 0.0949 µM, first compound 1 µM
[29] = second compound 0.0949 µM, first compound 3.16 µM
[30] = second compound 0.0949 µM, first compound 10 µM
[31] = second compound 0.3 µM, first compound 0.0316 µM
[32] = second compound 0.3 µM, first compound 0.1 µM
[33] = second compound 0.3 µM, first compound 0.316 µM
[34] = second compound 0.3 µM, first compound 1 µM
[35] = second compound 0.3 µM, first compound 3.16 µM
[36] = second compound 0.3 µM, first compound 10 µM
[37] = second compound 0.000949 µM, first compound 0.00316 µM
[38] = second compound 0.000949 µM, first compound 0.01 µM
[39] = second compound 0.003 µM, first compound 0.00316 µM
[40] = second compound 0.003 µM, first compound 0.01 µM
[41] = second compound 0.00949 µM, first compound 0.00316 µM
[42] = second compound 0.00949 µM, first compound 0.01 µM
[43] = second compound 0.03 µM, first compound 0.00316 µM
[44] = second compound 0.03 µM, first compound 0.01 µM
[45] = second compound 0.0949 µM, first compound 0.00316 µM
[46] = second compound 0.0949 µM, first compound 0.01 µM
[47] = second compound 0.3 µM, first compound 0.00316 µM
[48] = second compound 0.3 µM, first compound 0.01 µM
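Also: compound exposure lasted seven days before the viability read.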
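For viability, T/C in this document: spheroids also contain HUVEC endothelial cells and mesenchymal stem cells as stroma.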

CC(C)NCC(C(=O)N1CCN(c2ncnc3c2C(C)CC3O)CC1)c1ccc(Cl)cc1 (stereo not drawn) + CCn1c(-c2cccnc2C(C)OC)c2c3cc(ccc31)N1CCOC(CC(NC(=O)C(C(C)C)N(C)C(=O)C3(F)CCN(C(=O)C#CC(C)(C)N(C)C)CC3)C(=O)N3CCCC(N3)C(=O)OCC(C)(C)C2)C1
> 10 µM: IC50 (second compound 0.000949 µM) | IC50 (second compound 0.003 µM) | IC50 (second compound 0.00949 µM) | IC50 (second compound 0.03 µM) | IC50 (second compound 0.0949 µM)
inactive: viability, T/C [1] 84.8% | viability, T/C [2] 85.3% | viability, T/C [3] 84.9% | viability, T/C [4] 62.7% | viability, T/C [5] 68% | viability, T/C [6] 72% | viability, T/C [7] 81.6% | viability, T/C [8] 92.5% | viability, T/C [9] 77.4% | viability, T/C [10] 56.1% | viability, T/C [11] 62.4% | viability, T/C [12] 79.1% | viability, T/C [13] 88.7% | viability, T/C [14] 91.7% | viability, T/C [15] 78.7% | viability, T/C [16] 53% | viability, T/C [17] 60.1% | viability, T/C [18] 68% | viability, T/C [19] 83.9% | viability, T/C [20] 100% | viability, T/C [21] 83% | viability, T/C [22] 57.5% | viability, T/C [23] 68.3% | viability, T/C [24] 56.8% | viability, T/C [25] 93.6% | viability, T/C [26] 92% | viability, T/C [27] 82.4% | viability, T/C [28] 64.3% | viability, T/C [29] 61.3% | viability, T/C [30] 59.9% | viability, T/C [31] 67.2% | viability, T/C [32] 76.6% | viability, T/C [33] 67.9% | viability, T/C [34] 57.2% | viability, T/C [35] 57.4% | viability, T/C [36] 49.6%
8.61 µM: IC50 (second compound 0.3 µM)

CC(C)n1nc(-c2ccc3oc(N)nc3c2)c2c(N)ncnc21 + CCn1c(-c2cccnc2C(C)OC)c2c3cc(ccc31)N1CCOC(CC(NC(=O)C(C(C)C)N(C)C(=O)C3(F)CCN(C(=O)C#CC(C)(C)N(C)C)CC3)C(=O)N3CCCC(N3)C(=O)OCC(C)(C)C2)C1
0.0192 µM: IC50 (second compound 0.0949 µM)
0.021 µM: IC50 (second compound 0.000949 µM)
inactive: viability, T/C (second compound 0.000949 µM, first compound 0.000316 µM) 96.7% | viability, T/C (second compound 0.000949 µM, first compound 0.001 µM) 77.1% | viability, T/C [37] 83.1% | viability, T/C [38] 61.4% | viability, T/C [1] 41.8% | viability, T/C [2] 36.5% | viability, T/C (second compound 0.003 µM, first compound 0.000316 µM) 82% | viability, T/C (second compound 0.003 µM, first compound 0.001 µM) 91% | viability, T/C [39] 91.4% | viability, T/C [40] 64.8% | viability, T/C [7] 41.5% | viability, T/C [8] 30.1% | viability, T/C (second compound 0.00949 µM, first compound 0.000316 µM) 93.3% | viability, T/C (second compound 0.00949 µM, first compound 0.001 µM) 85.7% | viability, T/C [41] 83.6% | viability, T/C [42] 70.3% | viability, T/C [13] 42.5% | viability, T/C [14] 29.2% | viability, T/C (second compound 0.03 µM, first compound 0.000316 µM) 89.2% | viability, T/C (second compound 0.03 µM, first compound 0.001 µM) 101% | viability, T/C [43] 90.4% | viability, T/C [44] 69.8% | viability, T/C [19] 48.6% | viability, T/C [20] 34.2% | viability, T/C (second compound 0.0949 µM, first compound 0.000316 µM) 73.5% | viability, T/C (second compound 0.0949 µM, first compound 0.001 µM) 83.1% | viability, T/C [45] 86.2% | viability, T/C [46] 63.3% | viability, T/C [25] 39.9% | viability, T/C [26] 28.8% | viability, T/C (second compound 0.3 µM, first compound 0.000316 µM) 73.9% | viability, T/C (second compound 0.3 µM, first compound 0.001 µM) 70.3% | viability, T/C [47] 85.2% | viability, T/C [48] 55.2% | viability, T/C [31] 40.7% | viability, T/C [32] 30%
0.02 µM: IC50 (second compound 0.003 µM)
0.0236 µM: IC50 (second compound 0.00949 µM)
0.0135 µM: IC50 (second compound 0.3 µM)
0.0271 µM: IC50 (second compound 0.03 µM)

CC(Nc1ccc2c(c1)OCCn1cc(N3C(=O)OCC3C(F)F)nc1-2)C(N)=O (stereo not drawn) + CCn1c(-c2cccnc2C(C)OC)c2c3cc(ccc31)N1CCOC(CC(NC(=O)C(C(C)C)N(C)C(=O)C3(F)CCN(C(=O)C#CC(C)(C)N(C)C)CC3)C(=O)N3CCCC(N3)C(=O)OCC(C)(C)C2)C1
0.131 µM: IC50 (second compound 0.000949 µM)
< 0.0316 µM: IC50 (second compound 0.003 µM) | IC50 (second compound 0.00949 µM) | IC50 (second compound 0.03 µM) | IC50 (second compound 0.0949 µM) | IC50 (second compound 0.3 µM)
inactive: viability, T/C [1] 63.1% | viability, T/C [2] 46.7% | viability, T/C [3] 34.7% | viability, T/C [4] 27% | viability, T/C [5] 83.6% | viability, T/C [6] 17.9% | viability, T/C [7] 59.7% | viability, T/C [8] 36.6% | viability, T/C [9] 32.3% | viability, T/C [10] 23.8% | viability, T/C [11] 93.3% | viability, T/C [12] 16.3% | viability, T/C [13] 41.8% | viability, T/C [14] 46.3% | viability, T/C [15] 31.9% | viability, T/C [16] 26.3% | viability, T/C [17] 108% | viability, T/C [18] 15.6% | viability, T/C [19] 49.8% | viability, T/C [20] 44.2% | viability, T/C [21] 33.9% | viability, T/C [22] 30.8% | viability, T/C [23] 70.1% | viability, T/C [24] 13.9% | viability, T/C [25] 39.1% | viability, T/C [26] 33.6% | viability, T/C [27] 28% | viability, T/C [28] 22.4% | viability, T/C [29] 74.8% | viability, T/C [30] 13.6% | viability, T/C [31] 39.1% | viability, T/C [32] 32.6% | viability, T/C [33] 27.3% | viability, T/C [34] 24.9% | viability, T/C [35] 53.5% | viability, T/C [36] 12.8%

O=C(c1ccc(F)c(F)c1Nc1ccc(I)cc1F)N1CC(O)([C@@H]2CCCCN2)C1 + CCn1c(-c2cccnc2C(C)OC)c2c3cc(ccc31)N1CCOC(CC(NC(=O)C(C(C)C)N(C)C(=O)C3(F)CCN(C(=O)C#CC(C)(C)N(C)C)CC3)C(=O)N3CCCC(N3)C(=O)OCC(C)(C)C2)C1
0.0271 µM: IC50 (second compound 0.003 µM)
inactive: viability, T/C [37] 83% | viability, T/C [38] 53.3% | viability, T/C [1] 43.4% | viability, T/C [2] 36.1% | viability, T/C [3] 32.2% | viability, T/C [4] 22% | viability, T/C [39] 77.6% | viability, T/C [40] 62.5% | viability, T/C [7] 45.2% | viability, T/C [8] 36.1% | viability, T/C [9] 33% | viability, T/C [10] 18.6% | viability, T/C [41] 92.2% | viability, T/C [42] 60.9% | viability, T/C [13] 58.5% | viability, T/C [14] 42.2% | viability, T/C [15] 28.3% | viability, T/C [16] 24.2% | viability, T/C [43] 80% | viability, T/C [44] 59.6% | viability, T/C [19] 51.6% | viability, T/C [20] 39.2% | viability, T/C [21] 29% | viability, T/C [22] 22.2% | viability, T/C [45] 64.2% | viability, T/C [46] 56.8% | viability, T/C [25] 43.2% | viability, T/C [26] 36.4% | viability, T/C [27] 32.4% | viability, T/C [28] 23.9% | viability, T/C [47] 54.2% | viability, T/C [48] 46.5% | viability, T/C [31] 42.2% | viability, T/C [32] 37% | viability, T/C [33] 31.4% | viability, T/C [34] 17.8%
0.0413 µM: IC50 (second compound 0.00949 µM)
0.0173 µM: IC50 (second compound 0.000949 µM)
0.0178 µM: IC50 (second compound 0.0949 µM)
0.00672 µM: IC50 (second compound 0.3 µM)
0.0313 µM: IC50 (second compound 0.03 µM)
